Experimental data as given in patent US20030216571A1, “Tricyclic compounds” (priority 1999, published 2003).

Columns and labels:
Leukotriene D4 receptor = molecular target: T1, Leukotriene D4 receptor (Cavia porcellus, UniProt Q2NNR5); test: Leukotriene D4 receptor binding test; conditions: binding inhibition constant (Ki) vs [3H] LTD4 0.2 nM; lung cell membrane fraction from guinea pigs; 25° C. for 30 minutes; read-out: pKi value (converted)
T1 construct: As a receptor sample, a lung cell membrane fraction from guinea pigs was used; from tissue; host or cells: lung membrane fraction of Hartley male guinea pigs
T1 sequence (Q2NNR5 1-340): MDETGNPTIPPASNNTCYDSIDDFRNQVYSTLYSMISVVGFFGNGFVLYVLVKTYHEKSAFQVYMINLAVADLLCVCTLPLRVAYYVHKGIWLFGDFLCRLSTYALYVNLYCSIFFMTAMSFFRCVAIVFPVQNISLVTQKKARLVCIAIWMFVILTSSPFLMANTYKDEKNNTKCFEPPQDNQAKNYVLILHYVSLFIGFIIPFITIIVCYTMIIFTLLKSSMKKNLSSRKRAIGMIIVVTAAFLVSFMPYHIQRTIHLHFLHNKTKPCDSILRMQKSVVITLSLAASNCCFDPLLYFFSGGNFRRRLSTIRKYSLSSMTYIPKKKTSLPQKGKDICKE
Experimental: Leukotriene D4 Receptor Binding Test
As a receptor sample, a lung cell membrane fraction from guinea pigs was used. Preparation of the membrane fraction was carried out according to the method of Ahn et al. (Eur. J. Pharmacol., 127, 153-155 (1986)). Lungs of Hartley male guinea pigs (400 to 500 g body weight, Nippon SLC Co.) were extracted, and perfused with a physiological saline, and then, adding 10 mM of PIPES, 10 mM of MgCl2 and 10 mM of CaCl2 buffer (pH 7.5) to the lung tissue and the mixture was homogenized. This homogenate was centrifuged at 70,000 xg for 10 minutes to obtain a membrane fraction.
Leukotriene D4 (LTD4) recepter binding test was carried out according to the method of Aharony, et al. (J. Pharmacol. Expl.Ther., 243, 921-926 (1987)). To 0.42 mg of the receptor sample were added 10 mM of PIPES, 10 mM of MgCl2 and 10 mM of CaCl2 buffer (pH 7.5) to make the total amount of 480 μl, and 10 μl of [^3H] LTD4 (NEN Life Science Products Co.) and 10 μl of a Test compound in dimethylsulfoxide were added to the mixture, and the resulting mixture was incubated at 25° C. for 30 minutes. The mixtures thus incubated were filtered through a glass fiber filter (Whatman Co., GF/C) using cell harvester (Brandel Co., M-30R). The filter were washed with 10 mM of Tris. and 100 mM of NaCl buffer (pH 7.5), and 5 ml of a liquid scintillator (NACALAI TESQUE INC., clearsol I), and radioactivity was measured by a liquid scintillation analyzer (Packard Co., 2000CA). When a dissociation constant (Kd) of LTD4 was to be obtained, [^3H] LTD4 with 0.03 to 0.5 nM was used, and 1 μM of non-radioactive LTD4 was added. When a binding inhibition constant (Ki) of the Test compound is to be meaured, [^3H] LTD4 with 0.2 nM was used. Kd and Ki are calculated according to the method of Bennett et al. (Neurotransmitter Receptor Binding, 2nd ed., edited by H. I. Yamamura et al., pp. 61-89, Raven Press (1985)).

[1] = system: Leukotriene D4 induced respiratory constriction; test: Leukotriene D4 induced respiratory constriction test; type: in vivo; conditions: p.o. 1 hr before i.v. LTD4; anesthetized Hartley male guinea pigs; respiratory inner pressure
Experimental: Leukotriene D4 Induced Respiratory Constriction Test
Respiratory constriction was measured by modifying the method of Konzett and Rossler (Arch. Exp. Pathol. Pharmakol., 195, pp. 71-74 (1940)). Hartley male guinea pigs (400 to 500 g body weight, Nippon SLC Co.) were anesthetized with pentobarbital (50 mg/kg, s.c.), and a cannula was inserted into the trachea to carry out artificial ventilation with an artificial ventilator (manufactured by Harvard Co., Model 683). An inner pressure of the respiratory tract was measured by a differential pressure transducer (Nihon Koden, TP-603T) connected to the respiratory cannula and it is used as an index of respiratory constriction.
LTD4 (0.03, 0.06, 0.13, 0.25, 0.5, 1 and 2 μg/kg, Sigma Co.) was intravenously administered from a cannula inserted into the right jugular vein from a low dose with an interval of 5 minutes to cause a respiratory constriction reaction and an increased amount of a respiratory inner pressure was measured. Test compound was suspended in 0.5% sodium carboxymethyl cellulose aqueous solution, and orally administered 1 hour before administration of LTD4. Animals were fasted for 24 hours before administration of the Test compound.
A2=(Dose of Compound administered)/{(ED50 of group to which Compound was added)/(ED50 of control group)−1}

Compound | Ki (Leukotriene D4 receptor) | A2 (dose of Test compound required for shifting two-times the LTD4 dose-reaction curve of control group to higher dose side) [1] | melting point
C[C@H](CSC1c2ccccc2COc2ccc(/C=C/c3ccc4cc(F)c(F)cc4n3)cc21)C(=O)[O-].[Na+] (stereo partly drawn) [Example 43, Sodium 3-{[2-[(E)-2-(6,7-difluoro-2-quinolinyl)ethenyl]-6,11-dihydrodibenz[b,e]oxepin-11-yl]thio}-2-(S)-methyl-propionate] | 0.126 nM | 1.3 µg/kg | 193 to 216 °C
C[C@@H](CSC1c2ccccc2COc2ccc(/C=C/c3ccc4cc(F)c(F)cc4n3)cc21)C(=O)[O-].[Na+] (stereo partly drawn) [Example 44, Sodium 3-{[2-[(E)-2-(6,7-difluoro-2-quinolinyl)ethenyl]-6,11-dihydrodibenz[b,e]oxepin-11-yl]thio}-2-(R)-methylpropionate] | 0.2 nM | 5 µg/kg | 196 to 220 °C
O=C([O-])CCSC1c2cc(/C=C/c3ccc4cc(F)c(F)cc4n3)ccc2COc2ccccc21.[Na+] (stereo not drawn) [Example 54 (b), Sodium 3-{[9-[(E)-2-(6,7-difluoro-2-quinolinyl)ethenyl]-6,11-dihydrodibenz[b,e]oxepin-11-yl]thio}propionate] | 0.126 nM | 2.3 µg/kg | > 300 °C
